From PMC12598805, “Crystal Structure–Activity Relationship of Some MeO Phenylacrylonitriles: Dual Antimicrobial–Cytotoxic Effects and in Silico Perspectives” (ChemistryOpen, 2025)
In brackets after ≈: the same amount, converted by molar mass.

What was measured:
Format in all cases: cell-based
[1] = system: Enterococcus faecalis (ATCC 29212); experiment: Broth microdilution MIC; conditions: ATCC29212, E.faecalis
Experimental: (§1) Enterococcus faecalis (ATCC 29212) […]
(§2) ATCC: American Type Culture Collection; NRRL: Northern Regional Research Laboratory The compounds 2(a-c) obtained could only be completely solubilised with dimethyl sulphoxide (DMSO) and the highest possible stock solutions of 50 mg.mL-1 were prepared. […]
(§3) 3.1. Determination of Minimum Inhibition Concentration (MIC)
(§4) The minimum inhibition concentration (MIC) values of the compounds 2(a-c) against the test bacteria used in the study were determined according to the broth microdilution method.[1-2] MHB or SDB was used as test medium and bacterial and yeast suspensions were prepared at 0.5 Mc Farland concentration for each test bacteria. Double layer serial dilutions were prepared in "U" type 96-well microtiter plates. Medium+bacteria suspensions containing only medium in the first row, medium+bacteria in the second row and the final concentrations of the synthesised substances in the other rows between 25 mg.mL-1 and […] were added to the wells with a final volume of 200
(§5) μL. Ampicillin, Kanamycin and Amphotericin B standard antibiotics were used as positive controls.
(§6) Bacteria were incubated at 37±0.1 °C and C. albicans at 30±0.1 °C for 24-48 hours and the lowest concentration without growth was determined as MIC. Tests were performed in two parallel runs and mean values were given as a result. […]

[2] = system: Micrococcus luteus (NRRL-B-1018); experiment: Agar diffusion, zone of inhibition; conditions: M.luteus, antibiotics at 5 mg mL^−1
Text: (§7) The antibacterial and antifungal activities were reported utilizing the method described by the Clinical & Laboratory Standards Institute.^[ [31], [32] ^] Agar diffusion method was used to determine the antimicrobial activity of the synthesized substances. The media used were mueller hinton agar (MHA) for bacteria and sabouraud‐dextrose agar (SDA) for fungi (Merck), as recommended by the manufacturer.
(§8) The synthesized compounds were initially investigated for their antimicrobial activity to elucidate the potential therapeutic utility against various pathogenic microbes using the agar plate diffusion method. The compounds were tested at a concentration of 50 mg mL^−1, and the antibiotics (ampicillin, kanamycin, and amphotericin B) were used at 5 mg mL^−1. […] K.pneumoniae and B.cereus were resistant to ampicillin, while they were susceptible to kanamycin with inhibition values of 30 and 26 mm, respectively. No antimicrobial activity of the compounds was observed against E.faecalis, S.typhimurium, K.pneumoniae, and for the fungus compared to Amphotericin B (20 mm). […]
(§9) Micrococcus luteus (NRRL-B-1018) […]
(§10) ATCC: American Type Culture Collection; NRRL: Northern Regional Research Laboratory The compounds 2(a-c) obtained could only be completely solubilised with dimethyl sulphoxide (DMSO) and the highest possible stock solutions of 50 mg.mL-1 were prepared. To these wells 50 μl of the previously prepared substances were transferred using sterile micropipette tips. For comparison, Ampicillin and kanamycin antibiotics for bacteria and Amphotericin B antibiotics for fungus were used as positive controls and DMSO was used as negative control. The prepared petri plates were kept at +4°C for about 1 hour and then the bacterial cultures were incubated at 37°C for 18-24 hours and mould cultures at 27-30°C for 48-72 hours. The zones formed were measured millimetrically with callipers. The experiments were performed with three repetitions. […]

[3] = system: Escherichia coli (ATCC 25922); experiment: MBC by sub-culture from wells without growth; conditions: ATCC25922, E.coli
Experimental: (§11) Escherichia coli (ATCC 25922) […]
as §2, §3, §4, §5, §6

[4] = system: Enterococcus faecalis (ATCC 29212); experiment: MBC by sub-culture from wells without growth; conditions: ATCC29212, E.faecalis
Experimental: as §1, §2, §3, §4, §5, §6

[5] = system: Enterococcus faecalis (ATCC 29212); experiment: Agar diffusion, zone of inhibition; conditions: ATCC29212, E.faecalis, antibiotics at 5 mg mL^−1
Text: as §7, §8, §1, §10

[6] = system: Pseudomonas aeruginosa (ATCC 27853); experiment: MBC by sub-culture from wells without growth; conditions: ATCC27853, P.aeruginosa
Experimental: (§12) Pseudomonas aeruginosa (ATCC 27853) […]
as §2, §3, §4, §5
(§13) Bacteria were incubated at 37±0.1 °C and C. albicans at 30±0.1 °C for 24-48 hours and the lowest concentration without growth was determined as MIC. Tests were performed in two parallel runs and mean values were given as a result. In order to estimate “the minimum bactericidal/fungicidal concentrations (MBC/MFC) of the synthesised acrylonitrile derivatives “needed to indicate […] killing of the original inoculum,” 10 μl was taken from the wells with no observed growth and further sub-cultured onto their agar media (MHA and SDA for bacterial and fungal strains, respectively).[3] […]

[7] = system: Micrococcus luteus (NRRL-B-1018); experiment: Broth microdilution MIC; conditions: NRRLB1018, M.luteus
Experimental: as §9, §2, §3, §4, §5, §6

[8] = system: Staphylococcus aureus (ATCC 29213); experiment: Broth microdilution MIC; conditions: ATCC29213, S.aureus
Experimental: (§14) Staphylococcus aureus (ATCC 29213) […]
as §2, §3, §4, §5, §6

[9] = system: Pseudomonas aeruginosa (ATCC 27853); experiment: Broth microdilution MIC; conditions: ATCC27853, P.aeruginosa
Experimental: as §12, §2, §3, §4, §5, §6

[10] = system: Escherichia coli (ATCC 25922); experiment: Broth microdilution MIC; conditions: ATCC25922, E.coli
Experimental: as §11, §2, §3, §4, §5, §6

[11] = system: Staphylococcus aureus (ATCC 29213); experiment: MBC by sub-culture from wells without growth; conditions: ATCC29213, S.aureus
Experimental: as §14, §2, §3, §4, §5, §13

[12] = system: Klebsiella pneumoniae (ATCC-70063); experiment: Agar diffusion, zone of inhibition; conditions: K.pneumoniae, antibiotics at 5 mg mL^−1
Text: as §7, §8
Klebsiella pneumoniae (ATCC-70063)
as §10

[13] = system: Escherichia coli (ATCC 25922); experiment: Agar diffusion, zone of inhibition; conditions: antibiotics at 5 mg mL^−1
Text: as §7, §8, §11, §10

[14] = system: Bacillus subtilis (ATCC-19659); experiment: Agar diffusion, zone of inhibition; conditions: B.subtilis, antibiotics at 5 mg mL^−1
Text: as §7, §8, §10

[15] = system: Bacillus subtilis (ATCC-19659); experiment: MBC by sub-culture from wells without growth; conditions: ATCC19659, B.subtilis
Experimental: as §2, §3, §4, §5, §6

[16] = system: Micrococcus luteus (NRRL-B-1018); experiment: MBC by sub-culture from wells without growth; conditions: NRRLB1018, M.luteus
Experimental: as §9, §2, §3, §4, §5, §13

[17] = system: Pseudomonas aeruginosa (ATCC 27853); experiment: Agar diffusion, zone of inhibition; conditions: P.aeruginosa, antibiotics at 5 mg mL^−1
Text: as §7, §8, §12, §10

[18] = system: Salmonella typhimurium (NRRL-B-4420); experiment: Agar diffusion, zone of inhibition; conditions: Salmonella enterica; S.typhimurium; antibiotics at 5 mg mL^−1
Text: as §7, §8
Salmonella typhimurium (NRRL-B-4420) […]
as §10

[19] = system: Staphylococcus aureus (ATCC 29213); experiment: Agar diffusion, zone of inhibition; conditions: S.aureus, antibiotics at 5 mg mL^−1
Text: as §7, §8, §14, §10

[20] = system: Bacillus subtilis (ATCC-19659); experiment: Broth microdilution MIC; conditions: ATCC19659
Experimental: as §2, §3, §4, §5, §6

[21] = system: Bacillus cereus (ATCC-10876); experiment: Agar diffusion, zone of inhibition; conditions: B.cereus, antibiotics at 5 mg mL^−1
Text: as §7
The synthesized compounds were initially investigated for their antimicrobial activity to elucidate the potential therapeutic utility against various pathogenic microbes using the agar plate diffusion method. The compounds were tested at a concentration of 50 mg mL^−1, and the antibiotics (ampicillin, kanamycin, and amphotericin B) were used at 5 mg mL^−1. […] K.pneumoniae and B.cereus were resistant to ampicillin, while they were susceptible to kanamycin with inhibition values of 30 and 26 mm, respectively. No antimicrobial activity of the compounds was observed against E.faecalis, S.typhimurium, K.pneumoniae, and for the fungus compared to Amphotericin B (20 mm).
Bacillus cereus (ATCC-10876) […]
as §10

CC1(C)S[C@@H]2[C@H](NC(=O)[C@H](N)c3ccccc3)C(=O)N2[C@H]1C(=O)O [Ampicillin, reference compound]
MIC [1]: 250 µg/mL (≈ 715 µM)
zone of inhibition [2]: 44 ± 5.66 mm
zone of inhibition at 5 mg/mL ([2]; Micrococcus luteus, NRRLB1018): 44 mm
MBC [3]: 31.2 µg/mL (≈ 89.4 µM)
MBC [4]: 250 µg/mL (≈ 715 µM)
zone of inhibition at 5 mg/mL [5]: 34 ± 0.71 mm
MBC [6]: 62.5 µg/mL (≈ 179 µM)
MIC [7]: 31.2 µg/mL (≈ 89.4 µM)
MIC [8]: 250 µg/mL (≈ 715 µM)
MIC [9]: 62.5 µg/mL (≈ 179 µM)
MIC [10]: 31.2 µg/mL (≈ 89.4 µM)
MBC [11]: 250 µg/mL (≈ 715 µM)
zone of inhibition [12]: resistant
zone of inhibition at 5 mg/mL ([12]; Klebsiella pneumoniae, ATCC70063): < 6 mm
zone of inhibition ([13]; E.coli): 25 ± 0.71 mm
zone of inhibition at 5 mg/mL ([13]; Escherichia coli, ATCC25922, E.coli): 23 mm
zone of inhibition [14]: 32 ± 1.41 mm
zone of inhibition at 5 mg/mL ([14]; Bacillus subtilis, ATCC19659): 32 mm
MBC [15]: 25000 µg/mL (≈ 71500 µM)
MBC [16]: 31.2 µg/mL (≈ 89.4 µM)
zone of inhibition [17]: 30 ± 0.71 mm
zone of inhibition at 5 mg/mL ([17]; Pseudomonas aeruginosa, ATCC27853): 30 mm
zone of inhibition at 5 mg/mL [18]: 25 mm
zone of inhibition [19]: 24 ± 1.41 mm
zone of inhibition at 5 mg/mL ([19]; Staphylococcus aureus, ATCC29213): 24 mm
MIC [20]: 12500 µg/mL (≈ 35800 µM)
zone of inhibition [21]: resistant
zone of inhibition at 5 mg/mL ([21]; Bacillus cereus, ATCC10876): < 6 mm
